Test results: patent US20050070519A1, “Cyclisation process for the preparation of c-2 beta-lactam compounds” (priority 2001, published 2005)

Biological target: T1, BLS (β-lactam synthetase), polyhistidine tagged (Streptomyces clavuligerus, UniProt P0DJQ7)
T1 construct: made in house; host or cells: E. coli BL21(DE3), co-expressed with chaperonin GroELS
T1 sequence (P0DJQ7 1-513): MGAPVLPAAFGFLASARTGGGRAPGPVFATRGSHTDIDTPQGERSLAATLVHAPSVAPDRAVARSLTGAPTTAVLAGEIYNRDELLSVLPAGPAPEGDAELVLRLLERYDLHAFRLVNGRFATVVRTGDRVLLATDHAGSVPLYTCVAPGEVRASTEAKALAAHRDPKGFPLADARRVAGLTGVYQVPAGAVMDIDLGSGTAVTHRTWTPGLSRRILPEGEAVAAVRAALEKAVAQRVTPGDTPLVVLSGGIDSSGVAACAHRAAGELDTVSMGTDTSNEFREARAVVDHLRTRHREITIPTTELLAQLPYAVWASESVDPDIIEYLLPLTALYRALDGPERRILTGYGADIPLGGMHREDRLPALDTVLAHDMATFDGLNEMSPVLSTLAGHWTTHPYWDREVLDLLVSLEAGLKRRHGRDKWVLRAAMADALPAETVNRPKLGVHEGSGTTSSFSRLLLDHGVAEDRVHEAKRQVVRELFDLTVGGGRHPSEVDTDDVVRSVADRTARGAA
Assay: fluorescence detection pre-column derivatised HPLC substrate assay with polyhistidine tagged BLS
Type: biochemical
Excerpt: The bls gene has previously been expressed at relatively low levels using a pET24a(+) construct and purified by an involved two column protocol giving low overall yields (McNaughton, H. J.; Thirkettle, J. E.; Zhang, Z. H.; Schofield, C. J.; Jensen, S. E.; Barton, B.; Greaves, P. J. Chem. Soc., Chem. Commun. 1998, 2325-2326; Bachmann, B. O.; Townsend, C. A. Biochemistry 2000, 39, 11187-11193). To facilitate purification a polyhistidine tagged form of BLS (β-lactam synthetase) was produced by cloning bis into the pET28a(+) vector (from Novagen). […]
The bls gene in the vector pET28a(+) and a plasmid bearing the chaperonin GroELS^13 were simultaneously transformed into E. coli BL21(DE3) for co-expression. […] When the absorbance at 600 nm reached ˜1.0, IPTG was added to a final concentration of 1.0 mM and the cells harvested 16 hours later by centrifugation. […]
The 2-methylated substrate analogue (6) was initially assayed as a substrate for BLS using a fluorescence detection pre-column derivatised HPLC assay based on the work of Kai et al (Kai, M.; Miyazaki, T.; Yamaguchi, M.; Ohkura, Y. J. Chromatogr. 1983, 425-436). […]
Reactions were incubated at 37° C. for 15 minutes and then derivatised. […] Fluorescence was measured at 425 nm against 325 nm excitation. […]

## 2-Methyl CEA
Larger scale incubation, product isolated by HPLC, 1H NMR (500 MHz) analysis
  relative substrate efficiency of the two 2-methyl epimers: both epimers are approximately equally efficient substrates
Standard assay conditions: 2 mM substrate, 5 mM ATP, 10 mM MgCl2, pH 9, ca. 74 μg enzyme, 37° C., 15 minutes
  conversion of 2-methyl CEA (6) to 2-methyl DGPC (9): ca. 50%
